In patent US7855228B2, “Antibiotics targeting MreB” (The Board of Trustees of the Leland Stamford Junior …, priority 2005, dated 2010):
≈ marks a conversion by molar mass, not a printed value.

Columns and labels:
[1] = tested on: E. coli MG1655; experiment: Determination of minimum inhibitory concentration (MIC); format: cell-based; details: Escherichia coli, MG1655, Example 2; methods as in Example 1; read-out: MIC E. coli
Description: (§1) Determination of minimum inhibitory concentration (MIC). MICs were also determined on Mueller Hinton agar plates (0.2% beef extract, 1.75% acid digest of casein, 0.15% soluble starch, 1.5% agar, pH 7.3).
(§2) Determination of MIC Minimal inhibitory concentrations (MICs) were determined using a standard 2-fold serial dilution format on L agar plates. Ten microliters of stationary culture diluted in 0.85% NaCl to 10^6 cells/ml were spotted on per plate. […] MICs were also determined on Mueller Hinton agar plates (0.2% beef extract, 1.75% acid digest of casein, 0.15% soluble starch, 1.5% agar, pH 7.3).

[2] = tested on: P. putida NBRC14164; experiment: as above; format: cell-based, Pseudomonas putida; details: Pseudomonas putida, NBRC14164, Example 2; methods as in Example 1; read-out: MIC P. putida
Description: as §1, §2

[3] = tested on: S. typhimurium NBRC13245; experiment: as above; format: cell-based, Salmonella typhimurium; details: Salmonella enterica, Example 2; methods as in Example 1; read-out: MIC S. typhimurium
Description: as §1, §2

[4] = tested on: B. subtilis 168; experiment: as above; format: cell-based, Bacillus subtilis; details: Bacillus subtilis, 168, Example 2; methods as in Example 1; read-out: MIC B. subtilis
Description: as §1, §2

[5] = tested on: S. aureus subsp. aureus NBRC15035; experiment: as above; format: cell-based, Staphylococcus aureus; details: Staphylococcus aureus, NBRC15035, Example 2; methods as in Example 1; read-out: MIC S. aureus
Description: as §1, §2

[6] = tested on: E. coli MG1655; experiment: Microscopic observation of cell shape; format: cell-based; details: Example 2; methods as in Example 1
Description: Microscopic observation. E. coli K-12 strain MG1655 (F^− λ^−) was grown in Lennox broth containing 1% Polypepton, 0.5% yeast extract, 0.5% NaCl, and 0.1% glucose (pH 7.2). Cells spread on a slide glass were treated with methanol for 5 min and covered with poly-L-lysine. The fixed cells were observed by the differential interference contrast system through an Axioskop 2 microscope (Carl Zeiss Co., Ltd., Oberkochen, Germany). To observe the anucleate cells, cells were stained with a 4′,6-diamidino-2-phenylindole (DAPI) solution (5 μg/ml in saline) and then observed by the fluorescence phase-contrast combined method.
The effect of each compound on E. coli cell morphology was next examined.

| Structure (SMILES) | MIC [1] [µg/mL] | MIC [2] [µg/mL] | MIC [3] [µg/mL] | MIC [4] [µg/mL] | MIC [5] [µg/mL] | Shape [6] |
| --- | --- | --- | --- | --- | --- | --- |
| I.Nc1nc(-c2ccccc2)cs1 [TZ, reference compound] | > 100 | > 100 | > 100 | > 100 | > 100 | Rod |
| CC1(C)S[C@@H]2[C@H](NC(=O)C(N)c3ccccc3)C(=O)N2[C@H]1C(=O)O (stereo partly drawn) [ABPC, reference compound] | 3.13 (≈ 8.96 µM) | > 100 | 1.56 (≈ 4.46 µM) | 0.0488 (≈ 0.14 µM) | 0.195 (≈ 0.558 µM) | Fil |
| N=C(N)SCc1cccc(Cl)c1 [Compound 3-Cl] | 50 (≈ 249 µM) | > 100 | > 100 | 50 (≈ 249 µM) | > 100 | Sphere |
| N=C(N)SCc1cccc(Cl)c1Cl [2,3-Cl] | 25 (≈ 106 µM) | > 100 | 25 (≈ 106 µM) | 100 (≈ 425 µM) | 25 (≈ 106 µM) | Sphere |
| N=C(N)SCc1ccc(Cl)nc1 [4-Cl Pyr] | 100 (≈ 496 µM) | > 100 | > 100 | > 100 | > 100 | Sphere |
| N=C(N)SCc1cc(Cl)cc(Cl)c1 [3,5-Cl] | > 100 | > 100 | > 100 | > 100 | > 100 | Sphere |
| N=C(N)SCc1c(F)c(F)c(F)c(F)c1F [pentaF] | > 100 | > 100 | > 100 | > 100 | > 100 | Sphere |
| CC1CN(c2c(F)c(N)c3c(=O)c(C(=O)O)cn(C4CC4)c3c2F)CC(C)N1 (stereo not drawn) [SPFX, reference compound] | 0.0244 (≈ 0.0622 µM) | 0.391 (≈ 0.996 µM) | 0.0488 (≈ 0.124 µM) | 0.0244 (≈ 0.0622 µM) | 0.0488 (≈ 0.124 µM) |  |
| N=C(N)SCc1cccc(C(F)(F)F)c1 [Compound 3-CF3] | > 100 | > 100 | > 100 | > 100 | > 100 | Sphere |
| N=C(N)SCc1cc(Cl)ccc1Cl [2,5-Cl] | 12.5 (≈ 53.2 µM) | > 100 | 25 (≈ 106 µM) | > 100 | > 100 | Sphere |
| N=C(N)SCc1ccc(C(F)(F)F)cc1 [Compound 4-CF3, S-(4-Trifluoromethyl-benzyl)-isothiourea] | 50 (≈ 213 µM) | > 100 | > 100 | > 100 | > 100 | Sphere |
| N=C(N)SCc1ccc([N+](=O)[O-])cc1 [Compound 4-NO2, S-(4-Nitro-benzyl)-isothiourea] | 25 (≈ 118 µM) | > 100 | 50 (≈ 237 µM) | 25 (≈ 118 µM) | > 100 | Sphere |
| N=C(N)SCc1ccccc1F [Compound 2-F] | 25 (≈ 136 µM) | > 100 | 25 (≈ 136 µM) | > 100 | > 100 | Sphere |
| N=C(N)SCc1ccc(I)cc1 [Compound 4-I, S-(4-Iodo-benzyl)-isothiourea] | 12.5 (≈ 42.8 µM) | > 100 | 25 (≈ 85.6 µM) | > 100 | > 100 | Sphere |
| N=C(N)SCc1cccc(F)c1 [Compound 3-F] | 50 (≈ 271 µM) | > 100 | > 100 | 50 (≈ 271 µM) | > 100 | Sphere |
| N=C(N)SCc1cc(F)c(Cl)cc1Cl [2,4-Cl 5-F, S-(2,4-Dichloro, and 5-fluoro-benzyl)-isothiourea] | 0.78 (≈ 3.08 µM) | > 100 | 12.5 (≈ 49.4 µM) | 12.5 (≈ 49.4 µM) | > 100 | Sphere |

| Structure (SMILES) | MIC [1] [µg/mL] | MIC [2] [µg/mL] | MIC [3] [µg/mL] | MIC [4] [µg/mL] | MIC [5] [µg/mL] | Shape [6] |
| --- | --- | --- | --- | --- | --- | --- |
| N=C(N)SCc1ccccc1C(F)(F)F [Compound 2-CF3] | > 100 | > 100 | > 100 | > 100 | > 100 | Sphere |
| N=C(N)SCc1ccc(Br)cc1 [Compound 4-Br, S-(4-Bromo-benzyl)-isothiourea] | 3.13 (≈ 12.8 µM) | > 100 | 6.25 (≈ 25.5 µM) | > 100 | > 100 | Sphere |
| CC1(C)S[C@@H]2[C@H](NC(=O)c3ccccc3)C(=O)N2[C@H]1C(=O)O [PCG, reference compound] | 50 (≈ 156 µM) | > 100 | 12.5 (≈ 39 µM) | 0.0122 (≈ 0.0381 µM) | 0.0977 (≈ 0.305 µM) | Fil |
| N=C(N)SCc1ccc(Cl)cc1Cl [2,4-Cl, S-(2,4-Dichloro-benzyl)-isothiourea] | 1.56 (≈ 6.63 µM) | > 100 | 1.56 (≈ 6.63 µM) | > 100 | > 100 | Sphere |
| Cc1ccc(CSC(=N)N)cc1 [Compound 4-CH3, S-(4-methyl-benzyl)-isothiourea] | 25 (≈ 139 µM) | > 100 | 50 (≈ 277 µM) | > 100 | > 100 | Sphere |
| O=C(N[C@H](CO)[C@H](O)c1ccc([N+](=O)[O-])cc1)C(Cl)Cl [CP, reference compound] | 6.25 (≈ 19.3 µM) | 50 (≈ 155 µM) | 6.25 (≈ 19.3 µM) | 3.13 (≈ 9.69 µM) | 12.5 (≈ 38.7 µM) | Rod |
| CN(C)[C@@H]1C(O)=C(C(N)=O)C(=O)[C@@]2(O)C(O)=C3C(=O)c4c(O)cccc4[C@@](C)(O)C3CC12 (stereo partly drawn) [TC, reference compound] |  |  |  |  |  | Rod |
| N=C(N)SCc1ccccc1Br [Compound 2-Br] | 50 (≈ 204 µM) | > 100 | 50 (≈ 204 µM) | > 100 | > 100 | Sphere |
| COc1ccc(CSC(=N)N)cc1 [Compound 4-MeO] | > 100 | > 100 | > 100 | > 100 | > 100 | Sphere |
| N=C(N)SCc1ccc(F)c(F)c1 [3,4-F] | 12.5 (≈ 61.8 µM) | > 100 | 25 (≈ 124 µM) | 25 (≈ 124 µM) | 100 (≈ 494 µM) | Sphere |
| N=C(N)SCc1ccc(F)cc1 [Compound 4-F, S-(4-Fluoro-benzyl)-isothiourea] | 12.5 (≈ 67.8 µM) | > 100 | 12.5 (≈ 67.8 µM) | 50 (≈ 271 µM) | 100 (≈ 543 µM) | Sphere |
| N=C(N)SCc1ccccc1Cl [Compound 2-Cl] | 12.5 (≈ 62.3 µM) | > 100 | 25 (≈ 125 µM) | > 100 | > 100 | Sphere |
| N=C(N)SCc1c(F)cccc1F [2,6-F] | 50 (≈ 247 µM) | > 100 | 50 (≈ 247 µM) | > 100 | > 100 | Sphere |
| N=C(N)SCc1c(Cl)cc(Cl)cc1Cl [2,4,6-Cl] | 100 (≈ 371 µM) | > 100 | > 100 | 100 (≈ 371 µM) | > 100 | Sphere |
| N=C(N)SCc1c(Cl)cccc1Cl [2,6-Cl] | 12.5 (≈ 53.2 µM) | > 100 | 25 (≈ 106 µM) | > 100 | > 100 | Sphere |
